Patent US20250195521A1 (Revolution Medicines, Inc., priority 2020, published 2025)
Read-outs that look alike come from different tables or passages of the source.

Assays:
[1] = tested on: NCI-H358 cells (K-Ras G12C); assay: CellTiter-Glo cell viability, NCI-H358; assay type: cell-based, human; conditions: Homo sapiens, NCI-H358, 120 h, read-out: H358 Cell Viability IC50
Procedure, shortened: (§1)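 Compounds dispensed directly onto seeded cells; on day 5 plates equilibrated ~30 min to room temperature and luminescence read. Signal normalized to DMSO average (%) and fitted by four-parameter logistic.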

[2] = tested on: Capan-1 cells (K-Ras G12V); assay: CellTiter-Glo cell viability, Capan-1; assay type: cell-based, human; conditions: Homo sapiens, CAPAN-1, 120 h, read-out: Capan-1 Cell Viability IC50
Procedure, shortened: as §1

[3] = molecular target: KRAS G12C (Homo sapiens (Human), UniProt P01116+P62937, G12C); assay: Ras-Raf disruption/FRET/MOA assay (BRAF RBD, Cyclophilin A); assay type: biochemical; conditions: read-out: KRAS G12C FRET IC50
KRAS G12C, sequence (P01116-2 other isoform, or with tags, fused parts or gaps G12C): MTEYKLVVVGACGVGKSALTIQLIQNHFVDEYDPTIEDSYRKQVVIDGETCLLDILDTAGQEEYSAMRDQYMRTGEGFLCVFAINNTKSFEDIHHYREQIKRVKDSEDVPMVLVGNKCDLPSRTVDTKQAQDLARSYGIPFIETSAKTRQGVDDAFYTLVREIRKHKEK
KRAS G12C, sequence (P62937 whole entry): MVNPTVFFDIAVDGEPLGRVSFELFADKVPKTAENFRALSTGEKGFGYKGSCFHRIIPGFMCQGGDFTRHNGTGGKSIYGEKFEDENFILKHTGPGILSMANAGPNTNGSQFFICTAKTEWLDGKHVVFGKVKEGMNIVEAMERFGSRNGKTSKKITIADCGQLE
Procedure, shortened: (§2)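 Measured: compound-facilitated Cyclophilin A:Ras complex blocking RAF RBD binding. Conditions: 12.5 nM Ras-GMPPNP, 50 nM BRAF RBD, 25 μM CypA, 3 h plus 1.5 h detection. Output: IC50 from TR-FRET ratio.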

[4] = molecular target: KRAS G12D (Homo sapiens (Human), UniProt P01116+P62937, G12D); assay: as above; assay type: biochemical; conditions: read-out: KRAS G12D FRET IC50
KRAS G12D, sequence (P01116 other isoform, or with tags, fused parts or gaps G12D): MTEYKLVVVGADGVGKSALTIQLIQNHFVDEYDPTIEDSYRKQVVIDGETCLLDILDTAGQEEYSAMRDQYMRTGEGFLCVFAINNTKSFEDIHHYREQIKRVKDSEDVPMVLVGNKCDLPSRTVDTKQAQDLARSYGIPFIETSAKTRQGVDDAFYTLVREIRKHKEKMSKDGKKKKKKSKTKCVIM
KRAS G12D, sequence (P62937 whole entry): as the sequence (P62937 whole entry) above
Procedure, shortened: as §2

[5] = molecular target: KRAS G12S (Homo sapiens (Human), UniProt P01116+P62937, G12S); assay: as above; assay type: biochemical; conditions: read-out: KRAS G12S FRET IC50
KRAS G12S, sequence (P01116 other isoform, or with tags, fused parts or gaps G12S): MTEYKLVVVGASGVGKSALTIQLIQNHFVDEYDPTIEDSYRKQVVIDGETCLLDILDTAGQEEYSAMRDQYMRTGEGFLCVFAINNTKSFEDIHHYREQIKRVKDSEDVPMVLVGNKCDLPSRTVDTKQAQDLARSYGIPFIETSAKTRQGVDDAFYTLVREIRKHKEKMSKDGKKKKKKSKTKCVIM
KRAS G12S, sequence (P62937 whole entry): as the sequence (P62937 whole entry) above
Procedure, shortened: as §2

[6] = molecular target: KRAS G12V (Homo sapiens (Human), UniProt P01116+P62937, G12V); assay: as above; assay type: biochemical; conditions: read-out: KRAS G12V FRET IC50
KRAS G12V, sequence (P01116 other isoform, or with tags, fused parts or gaps G12V): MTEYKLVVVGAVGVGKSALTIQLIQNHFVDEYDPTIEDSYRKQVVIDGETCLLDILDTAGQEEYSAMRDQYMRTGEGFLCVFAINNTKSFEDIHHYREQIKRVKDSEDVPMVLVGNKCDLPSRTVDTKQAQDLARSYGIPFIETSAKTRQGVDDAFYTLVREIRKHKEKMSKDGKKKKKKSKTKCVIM
KRAS G12V, sequence (P62937 whole entry): as the sequence (P62937 whole entry) above
Procedure, shortened: as §2

[7] = molecular target: KRAS G13C (Homo sapiens (Human), UniProt P01116+P62937, G13C); assay: as above; assay type: biochemical; conditions: read-out: KRAS G13C FRET IC50
KRAS G13C, sequence (P01116 other isoform, or with tags, fused parts or gaps G13C): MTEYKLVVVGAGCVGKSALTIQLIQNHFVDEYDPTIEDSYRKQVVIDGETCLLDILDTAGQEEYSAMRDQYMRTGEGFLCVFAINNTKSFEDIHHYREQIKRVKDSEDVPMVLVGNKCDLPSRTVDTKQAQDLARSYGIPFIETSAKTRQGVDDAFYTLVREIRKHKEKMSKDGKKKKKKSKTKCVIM
KRAS G13C, sequence (P62937 whole entry): as the sequence (P62937 whole entry) above
Procedure, shortened: as §2

[8] = molecular target: KRAS G13D (Homo sapiens (Human), UniProt P01116+P62937, G13D); assay: as above; assay type: biochemical; conditions: read-out: KRAS G13D FRET data IC50
KRAS G13D, sequence (P01116 other isoform, or with tags, fused parts or gaps G13D): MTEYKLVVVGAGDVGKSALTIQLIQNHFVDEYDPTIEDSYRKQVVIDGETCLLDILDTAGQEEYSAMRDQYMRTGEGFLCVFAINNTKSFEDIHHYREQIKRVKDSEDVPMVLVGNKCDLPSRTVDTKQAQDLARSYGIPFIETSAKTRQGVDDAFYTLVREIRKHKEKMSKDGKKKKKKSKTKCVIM
KRAS G13D, sequence (P62937 whole entry): as the sequence (P62937 whole entry) above
Procedure, shortened: as §2

[9] = molecular target: KRAS WT (Homo sapiens (Human), UniProt P01116+P62937); assay: as above; assay type: biochemical; conditions: read-out: KRAS WT FRET data IC50
KRAS WT, sequence (P01116 other isoform, or with tags, fused parts or gaps): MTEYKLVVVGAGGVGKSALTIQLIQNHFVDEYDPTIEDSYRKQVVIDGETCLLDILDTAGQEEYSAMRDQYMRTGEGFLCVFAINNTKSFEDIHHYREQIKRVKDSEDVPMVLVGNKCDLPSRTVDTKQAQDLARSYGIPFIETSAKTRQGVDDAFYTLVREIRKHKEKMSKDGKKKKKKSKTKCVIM
KRAS WT, sequence (P62937 whole entry): as the sequence (P62937 whole entry) above
Procedure, shortened: as §2

[10] = molecular target: NRAS G12C (Homo sapiens (Human), UniProt P01111+P62937, G12C); assay: as above; assay type: biochemical
NRAS G12C, sequence (P01111 whole entry G12C): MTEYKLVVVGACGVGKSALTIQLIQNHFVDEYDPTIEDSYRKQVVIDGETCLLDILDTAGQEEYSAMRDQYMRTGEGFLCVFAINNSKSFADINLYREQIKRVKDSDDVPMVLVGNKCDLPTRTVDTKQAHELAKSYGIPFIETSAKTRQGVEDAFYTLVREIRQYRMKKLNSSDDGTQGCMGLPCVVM
NRAS G12C, sequence (P62937 whole entry): as the sequence (P62937 whole entry) above
Procedure, shortened: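 TR-FRET readout: anti-His Eu-W1024 (10 nM) and anti-GST allophycocyanin (50 nM) added after 3 h, 25° C compound incubation, then 1.5 h more. Decrease in FRET ratio versus DMSO wells marks Ras:RAF disruption; IC50 reported.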

[11] = read-out: NRAS G12C FRET data IC50

## CCn1c(-c2cccnc2[C@H](C)OC)c2c3cc(ccc31)-c1csc(n1)C[C@H](NC(=O)[C@H](C(C)C)N(C)C(=O)N1CC(N(C)C(C)C)C1)C(=O)N1CCC[C@H](N1)C(=O)OCC(C)(C)C2 [Compound A318]
[1]; K-Ras G12C, 5-day treatment
  IC50: 10 to 100 nM
[2]; K-Ras G12V, 5-day treatment
  IC50: 10 to 100 nM
[3]
  IC50: 100 to 1000 nM
[4]
  IC50: 1000 to 10000 nM
[5]
  IC50: 100 to 1000 nM
[6]
  IC50: 100 to 1000 nM
[7]
  IC50: 100 to 1000 nM
[8]
  IC50: 100 to 1000 nM
[9]
  IC50: 100 to 1000 nM
[10]; [11]
  IC50: 100 to 1000 nM

## CCn1c(-c2cccnc2[C@H](C)OC)c2c3cc(ccc31)-c1cccc(c1)C[C@H](NC(=O)[C@H](C(C)C)N(C)C(=O)N1CC(OC)C1)C(=O)N1CCC[C@H](N1)C(=O)OCC(C)(C)C2 [Compound A355]
[1]; K-Ras G12C, 5-day treatment
  IC50: 100 to 1000 nM
[2]; K-Ras G12V, 5-day treatment
  IC50: 100 to 1000 nM
[3]
  IC50: 100 to 1000 nM
[4]
  IC50: 1000 to 10000 nM
[5]
  IC50: 1000 to 10000 nM
[6]
  IC50: 100 to 1000 nM
[7]
  IC50: 100 to 1000 nM
[8]
  IC50: 1000 to 10000 nM
[9]
  IC50: 100 to 1000 nM
[10]; [11]
  IC50: 100 to 1000 nM

## CCn1c(-c2cccnc2[C@H](C)OC)c2c3cc(ccc31)-c1csc(n1)C[C@H](NC(=O)[C@H](C(C)C)N(C)C(=O)N1CCCCC1)C(=O)N1CCC[C@H](N1)C(=O)OCC(C)(C)C2 [Compound A363]
[1]; K-Ras G12C, 5-day treatment
  IC50: 10 to 100 nM
[2]; K-Ras G12V, 5-day treatment
  IC50: 10 to 100 nM
[3]
  IC50: 10 to 100 nM
[4]
  IC50: 100 to 1000 nM
[5]
  IC50: 10 to 100 nM
[6]
  IC50: 100 to 1000 nM
[7]
  IC50: 100 to 1000 nM
[8]
  IC50: 100 to 1000 nM
[9]
  IC50: 10 to 100 nM
[10]; [11]
  IC50: 10 to 100 nM

## CCn1c(-c2cccnc2[C@H](C)OC)c2c3cc(ccc31)-c1cc(O)cc(c1)C[C@H](NC(=O)[C@H](C(C)C)N(C)C(=O)C1CC(C)C1)C(=O)N1CCC[C@H](N1)C(=O)OCC(C)(C)C2 (some centres unmarked) [Compound A384]
[1]; K-Ras G12C, 5-day treatment
  IC50: 100 to 1000 nM
[2]; K-Ras G12V, 5-day treatment
  IC50: 100 to 1000 nM
[3]
  IC50: 10 to 100 nM
[4]
  IC50: 100 to 1000 nM
[5]
  IC50: 100 to 1000 nM
[6]
  IC50: 100 to 1000 nM
[7]
  IC50: 10 to 100 nM
[8]
  IC50: 100 to 1000 nM
[9]
  IC50: 100 to 1000 nM
[10]; [11]
  IC50: 10 to 100 nM

## CCn1c(-c2cccnc2[C@H](C)OC)c2c3cc(ccc31)-c1cc(O)cc(c1)C[C@H](NC(=O)[C@H](C(C)C)N(C)C(=O)[C@H]1CC[C@@H]1N)C(=O)N1CCC[C@H](N1)C(=O)OCC(C)(C)C2 [Compound A392]
[1]; K-Ras G12C, 5-day treatment
  IC50: 10 to 100 nM
[2]; K-Ras G12V, 5-day treatment
  IC50: 1000 to 10000 nM
[3]
  IC50: 10 to 100 nM
[4]
  IC50: 10 to 100 nM
[5]
  IC50: 10 to 100 nM
[6]
  IC50: 100 to 1000 nM
[7]
  IC50: 10 to 100 nM
[8]
  IC50: 10 to 100 nM
[9]
  IC50: 10 to 100 nM
[10]; [11]
  IC50: 10 to 100 nM

## CCn1c(-c2cccnc2[C@H](C)OC)c2c3cc(ccc31)-c1cc(O)cc(c1)C[C@H](NC(=O)[C@H](C(C)C)N(C)C(=O)C1CCNC13CCC3)C(=O)N1CCC[C@H](N1)C(=O)OCC(C)(C)C2 (some centres unmarked) [Compound A393]
[1]; K-Ras G12C, 5-day treatment
  IC50: 100 to 1000 nM
[2]; K-Ras G12V, 5-day treatment
  IC50: 1000 to 10000 nM
[3]
  IC50: 10 to 100 nM
[4]
  IC50: 10 to 100 nM
[5]
  IC50: 10 to 100 nM
[6]
  IC50: 100 to 1000 nM
[7]
  IC50: 10 to 100 nM
[8]
  IC50: 10 to 100 nM
[9]
  IC50: 10 to 100 nM
[10]; [11]
  IC50: 10 to 100 nM

## CCn1c(-c2cccnc2[C@H](C)OC)c2c3cc(ccc31)-c1csc(n1)C[C@H](NC(=O)[C@H](C(C)C)N(C)C(=O)N1CCOC[C@H]1C)C(=O)N1CCC[C@H](N1)C(=O)OCC(C)(C)C2 [Compound A402]
[1]; K-Ras G12C, 5-day treatment
  IC50: 10 to 100 nM
[2]; K-Ras G12V, 5-day treatment
  IC50: 10 to 100 nM
[3]
  IC50: 10 to 100 nM
[4]
  IC50: 100 to 1000 nM
[5]
  IC50: 100 to 1000 nM
[6]
  IC50: 100 to 1000 nM
[7]
  IC50: 100 to 1000 nM
[8]
  IC50: 100 to 1000 nM
[9]
  IC50: 10 to 100 nM
[10]; [11]
  IC50: 10 to 100 nM

## CCn1c(-c2cccnc2[C@H](C)OC)c2c3cc(ccc31)-c1cc(O)cc(c1)C[C@H](NC(=O)[C@H](C(C)C)N(C)C(=O)C1CCC(C(F)(F)F)O1)C(=O)N1CCC[C@H](N1)C(=O)OCC(C)(C)C2 (some centres unmarked) [Compound A408]
[1]
  IC50: 100 to 1000 nM
[2]
  IC50: 1000 to 10000 nM
[3]
  IC50: 10 to 100 nM
[4]
  IC50: 100 to 1000 nM
[5]
  IC50: 10 to 100 nM
[6]
  IC50: 100 to 1000 nM
[7]
  IC50: 10 to 100 nM
[8]
  IC50: 100 to 1000 nM
[9]
  IC50: 100 to 1000 nM
[10]; NRAS G12C FRET data IC50
  IC50: 10 to 100 nM
